According to PubChem BioAssay (NCI):
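Interpolation was linear, between the two tested concentrations surrounding the appropriate level; five concentrations were tested over 48 hours in 96-well plates. Definition used: TGI = concentration required for complete inhibition of growth.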

How the values were obtained:
Test in all cases: NCI anticancer screen, dose series, 48 h
[1] = tested on: CCRF-CEM leukemia
[2] = tested on: SK-MEL-5 melanoma
[3] = tested on: SW-620 colon
[4] = tested on: TK-10 renal
[5] = tested on: A498 renal
[6] = tested on: SN12C renal
[7] = tested on: K-562 leukemia
[8] = tested on: HOP-92 NSCLC
[9] = tested on: OVCAR-8 ovarian
[10] = tested on: HS 578T breast
[11] = tested on: RPMI-8226 leukemia
[12] = tested on: SNB-19 CNS
[13] = tested on: MCF7 breast
[14] = tested on: NCI-H460 lung
[15] = tested on: M14 melanoma
[16] = tested on: HCC-2998 colon
[17] = tested on: DU-145 prostate
[18] = tested on: EKVX NSCLC
[19] = tested on: SF-268 CNS
[20] = tested on: HCT-116 colon
[21] = tested on: HT29 colon
[22] = tested on: IGROV1 ovarian
[23] = tested on: MDA-N
[24] = tested on: NCI-H522 lung
[25] = tested on: MDA-MB-435
[26] = tested on: ACHN renal
[27] = tested on: OVCAR-3 ovarian
[28] = tested on: UACC-62 melanoma
[29] = tested on: HCT-15 colon
[30] = tested on: MDA-MB-231 breast
[31] = tested on: 786-0 renal
[32] = tested on: NCI-H23 lung
[33] = tested on: UO-31 renal
[34] = tested on: UACC-257 melanoma
[35] = tested on: NCI-H226 lung
[36] = tested on: CAKI-1 renal
[37] = tested on: SK-MEL-28 melanoma
[38] = tested on: HL-60(TB) leukemia
[39] = tested on: KM12 colon
[40] = tested on: SK-OV-3 ovarian
[41] = tested on: OVCAR-5 ovarian
[42] = tested on: RXF 393 renal
[43] = tested on: MALME-3M melanoma
[44] = tested on: HOP-62 NSCLC
[45] = tested on: MOLT-4 leukemia
[46] = tested on: OVCAR-4 ovarian
[47] = tested on: T-47D breast
[48] = tested on: U251 CNS
[49] = tested on: NCI/ADR-RES ovarian
[50] = tested on: A549 NSCLC
[51] = tested on: PC-3 prostate
[52] = tested on: SF-295 CNS
[53] = tested on: BT-549 breast
[54] = tested on: LOX IMVI melanoma
[55] = tested on: COLO 205 colon
[56] = tested on: SK-MEL-2 melanoma
[57] = tested on: SF-539 CNS

Clc1ccc(CSC2=NCCN2)cc1Cl
TGI [1]: 22.3 µM | TGI [2]: 26 µM | TGI [3]: 35.4 µM | TGI [4]: 31.5 µM | TGI [5]: 52.8 µM | TGI [6]: 35.8 µM | TGI [7]: 88.8 µM | TGI [8]: 13.8 µM | TGI [9]: 40 µM | TGI [10]: 53.7 µM | TGI [11]: 36.3 µM | TGI [12]: > 100 µM | TGI [13]: 25.2 µM | TGI [14]: 37.3 µM | TGI [15]: 30.6 µM | TGI [16]: 30.1 µM | TGI [17]: 29.7 µM | TGI [18]: 24.3 µM | TGI [19]: 42.5 µM | TGI [20]: 28.7 µM | TGI [21]: 28.4 µM | TGI [22]: 39.1 µM | TGI [23]: 25 µM | TGI [24]: 21.5 µM | TGI [25]: 30.5 µM | TGI [26]: 30.9 µM | TGI [27]: 30.3 µM | TGI [28]: 30.5 µM | TGI [29]: 31.9 µM | TGI [30]: 29.2 µM | TGI [31]: 23.8 µM | TGI [32]: 35.8 µM | TGI [33]: 23.6 µM | TGI [34]: 24.1 µM | TGI [35]: 42.3 µM | TGI [36]: 23.5 µM | TGI [37]: 35.1 µM | TGI [38]: 27.7 µM | TGI [39]: 33.5 µM | TGI [40]: 49.5 µM | TGI [41]: 53.3 µM | TGI [42]: 28.4 µM | TGI [43]: 28.6 µM | TGI [44]: 47.1 µM | TGI [45]: 35.9 µM | TGI [46]: 27 µM | TGI [47]: 27 µM | TGI [48]: 27 µM | TGI [49]: 49.8 µM | TGI [50]: 98.9 µM | TGI [51]: 23.7 µM | TGI [52]: > 100 µM | TGI [53]: 40.2 µM | TGI [54]: 30.1 µM | TGI [55]: 37.9 µM

CC(C)(C)OC(=O)NCC(c1c[nH]c2ccc(Br)cc12)c1c[nH]c2ccc(Br)cc12
TGI [56]: 22.3 µM | TGI [1]: 71.1 µM | TGI [2]: 19 µM | TGI [3]: 24.9 µM | TGI [4]: 25.2 µM | TGI [5]: 29.1 µM | TGI [6]: 18.1 µM | TGI [7]: > 100 µM | TGI [8]: 19.4 µM | TGI [9]: 45.6 µM | TGI [10]: 47.7 µM | TGI [11]: > 100 µM | TGI [12]: 23.3 µM | TGI [13]: 22 µM | TGI [15]: 12.6 µM | TGI [16]: 18 µM | TGI [17]: 27.7 µM | TGI [18]: 15.2 µM | TGI [19]: 25.6 µM | TGI [20]: 13.8 µM | TGI [21]: 12.2 µM | TGI [22]: 17.3 µM | TGI [23]: 21.2 µM | TGI [24]: 25.2 µM | TGI [25]: 28.7 µM | TGI [26]: 18.1 µM | TGI [27]: 17.2 µM | TGI [28]: 23.1 µM | TGI [29]: 20.8 µM | TGI [30]: 32.1 µM | TGI [57]: 27.8 µM | TGI [31]: 13.2 µM | TGI [32]: 14.5 µM | TGI [33]: 19.6 µM | TGI [34]: 25.6 µM | TGI [35]: 36.7 µM | TGI [36]: 24.5 µM | TGI [37]: 34.9 µM | TGI [38]: 37.1 µM | TGI [39]: 19.4 µM | TGI [41]: 20.2 µM | TGI [42]: 25.7 µM | TGI [43]: 33.3 µM | TGI [44]: 27.3 µM | TGI [46]: 25.9 µM | TGI [47]: 32.9 µM | TGI [48]: 19.1 µM | TGI [49]: 23.1 µM | TGI [50]: 17.2 µM | TGI [51]: 11.8 µM | TGI [52]: 21.9 µM | TGI [53]: 24.8 µM | TGI [54]: 22.7 µM | TGI [55]: 16.2 µM
